{"source": "paper PMC5613053", "about": "(Investigational New Drugs, 2017)", "key": {"FLT3": {"biological_target": "FLT3 (Homo sapiens, UniProt P36888)", "sequence (P36888 27-993)": "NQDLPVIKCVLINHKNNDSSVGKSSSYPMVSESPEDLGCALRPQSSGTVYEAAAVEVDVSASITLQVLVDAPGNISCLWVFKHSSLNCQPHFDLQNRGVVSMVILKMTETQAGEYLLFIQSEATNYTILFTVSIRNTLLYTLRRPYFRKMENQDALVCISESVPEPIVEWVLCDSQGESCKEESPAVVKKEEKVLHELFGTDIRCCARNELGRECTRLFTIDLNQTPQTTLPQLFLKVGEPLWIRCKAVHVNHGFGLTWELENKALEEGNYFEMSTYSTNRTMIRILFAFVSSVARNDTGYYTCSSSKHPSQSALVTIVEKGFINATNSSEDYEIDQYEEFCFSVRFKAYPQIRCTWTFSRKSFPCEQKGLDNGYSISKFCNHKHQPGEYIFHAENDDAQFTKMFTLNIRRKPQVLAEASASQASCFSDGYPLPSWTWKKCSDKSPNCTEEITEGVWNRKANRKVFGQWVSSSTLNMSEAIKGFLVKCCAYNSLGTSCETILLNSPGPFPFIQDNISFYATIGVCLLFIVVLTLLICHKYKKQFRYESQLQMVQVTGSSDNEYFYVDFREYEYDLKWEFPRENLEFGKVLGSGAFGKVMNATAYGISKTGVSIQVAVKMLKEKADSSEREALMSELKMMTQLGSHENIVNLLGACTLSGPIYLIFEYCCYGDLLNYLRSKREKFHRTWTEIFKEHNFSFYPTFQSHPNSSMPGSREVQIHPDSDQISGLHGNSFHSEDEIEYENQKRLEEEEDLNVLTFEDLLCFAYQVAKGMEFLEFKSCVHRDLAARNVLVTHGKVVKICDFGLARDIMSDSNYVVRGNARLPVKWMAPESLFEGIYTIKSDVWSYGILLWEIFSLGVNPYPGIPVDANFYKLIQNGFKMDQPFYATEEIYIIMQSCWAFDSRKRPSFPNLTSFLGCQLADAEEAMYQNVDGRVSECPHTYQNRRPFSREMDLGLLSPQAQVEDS", "test": "biochemical", "conditions": "read-out: Inhibition of kinase activity", "method": "These assays were conducted according to the manufacturer’s instructions. […] TK-ELISA and MSA assays were used to conduct IC50 studies for FLT3, LTK, AXL, and c-KIT; the HTRF® KinEASE™-TK assay (Sceti Medical Labo, Tokyo, Japan) was performed according to the manufacturer’s protocol to assess the IC50 value of echinoderm microtubule-associated protein-like 4-ALK (EML4-ALK; three individual experiments for each kinase)."}, "LTK": {"biological_target": "T1, LTK (Homo sapiens, UniProt P29376)", "T1 construct": "purchased Carna Biosciences, Inc", "T1 sequence (P29376 17-864)": "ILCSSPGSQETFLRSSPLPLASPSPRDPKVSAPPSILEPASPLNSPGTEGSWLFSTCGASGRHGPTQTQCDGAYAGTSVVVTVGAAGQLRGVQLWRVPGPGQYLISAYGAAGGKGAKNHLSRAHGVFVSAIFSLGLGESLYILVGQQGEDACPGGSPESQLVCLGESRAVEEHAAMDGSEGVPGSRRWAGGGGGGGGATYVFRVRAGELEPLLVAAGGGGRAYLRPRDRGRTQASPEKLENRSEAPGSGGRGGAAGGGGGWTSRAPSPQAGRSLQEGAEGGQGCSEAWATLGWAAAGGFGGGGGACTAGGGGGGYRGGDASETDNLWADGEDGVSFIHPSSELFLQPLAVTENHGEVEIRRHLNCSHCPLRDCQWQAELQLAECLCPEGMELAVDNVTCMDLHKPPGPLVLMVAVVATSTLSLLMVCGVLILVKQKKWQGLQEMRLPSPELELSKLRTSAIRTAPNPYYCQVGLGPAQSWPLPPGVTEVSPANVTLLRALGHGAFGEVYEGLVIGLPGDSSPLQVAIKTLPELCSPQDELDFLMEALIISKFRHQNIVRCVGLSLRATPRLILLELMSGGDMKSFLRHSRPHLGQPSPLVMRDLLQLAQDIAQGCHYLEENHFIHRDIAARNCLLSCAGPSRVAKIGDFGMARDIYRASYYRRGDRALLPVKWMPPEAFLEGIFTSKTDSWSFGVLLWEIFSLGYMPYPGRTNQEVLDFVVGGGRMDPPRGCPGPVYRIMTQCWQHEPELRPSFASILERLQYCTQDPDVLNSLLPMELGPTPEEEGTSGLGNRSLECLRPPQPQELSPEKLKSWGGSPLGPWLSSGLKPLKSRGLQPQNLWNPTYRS", "test": "Kinase inhibitory assay (TK-ELISA / off-chip MSA)", "type": "biochemical"}, "AXL": {"biological_target": "T2, AXL (Homo sapiens, UniProt P30530)", "T2 construct": "purchased Carna Biosciences, Inc", "T2 sequence (P30530 26-894)": "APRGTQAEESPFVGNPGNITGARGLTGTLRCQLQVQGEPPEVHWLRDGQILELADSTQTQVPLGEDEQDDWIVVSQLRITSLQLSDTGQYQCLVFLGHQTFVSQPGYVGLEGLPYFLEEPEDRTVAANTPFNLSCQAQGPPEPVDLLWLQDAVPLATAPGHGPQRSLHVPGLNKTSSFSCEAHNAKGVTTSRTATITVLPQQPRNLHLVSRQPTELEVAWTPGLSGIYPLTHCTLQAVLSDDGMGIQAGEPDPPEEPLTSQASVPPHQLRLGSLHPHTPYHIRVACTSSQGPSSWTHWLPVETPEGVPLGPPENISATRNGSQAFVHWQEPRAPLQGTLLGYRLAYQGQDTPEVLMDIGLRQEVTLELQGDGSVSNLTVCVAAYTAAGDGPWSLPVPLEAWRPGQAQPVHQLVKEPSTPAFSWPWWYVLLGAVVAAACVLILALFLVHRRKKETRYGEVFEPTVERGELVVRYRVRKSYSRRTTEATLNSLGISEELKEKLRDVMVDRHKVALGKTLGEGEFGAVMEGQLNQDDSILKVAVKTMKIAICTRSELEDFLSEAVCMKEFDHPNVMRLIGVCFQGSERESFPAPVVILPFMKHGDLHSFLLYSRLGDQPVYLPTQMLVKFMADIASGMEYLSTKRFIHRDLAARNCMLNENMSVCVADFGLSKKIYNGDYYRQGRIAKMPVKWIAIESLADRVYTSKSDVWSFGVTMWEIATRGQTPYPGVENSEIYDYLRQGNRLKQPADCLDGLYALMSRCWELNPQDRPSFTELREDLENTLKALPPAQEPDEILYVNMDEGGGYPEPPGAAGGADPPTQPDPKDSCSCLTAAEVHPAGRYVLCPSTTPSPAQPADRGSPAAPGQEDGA", "test": "Kinase inhibitory assay (TK-ELISA / off-chip MSA)", "type": "biochemical", "conditions": "1 nM; single experiment"}, "c-KIT": {"biological_target": "T3, c-KIT (Homo sapiens, UniProt P10721)", "T3 construct": "purchased Carna Biosciences, Inc", "T3 sequence (P10721 26-976)": "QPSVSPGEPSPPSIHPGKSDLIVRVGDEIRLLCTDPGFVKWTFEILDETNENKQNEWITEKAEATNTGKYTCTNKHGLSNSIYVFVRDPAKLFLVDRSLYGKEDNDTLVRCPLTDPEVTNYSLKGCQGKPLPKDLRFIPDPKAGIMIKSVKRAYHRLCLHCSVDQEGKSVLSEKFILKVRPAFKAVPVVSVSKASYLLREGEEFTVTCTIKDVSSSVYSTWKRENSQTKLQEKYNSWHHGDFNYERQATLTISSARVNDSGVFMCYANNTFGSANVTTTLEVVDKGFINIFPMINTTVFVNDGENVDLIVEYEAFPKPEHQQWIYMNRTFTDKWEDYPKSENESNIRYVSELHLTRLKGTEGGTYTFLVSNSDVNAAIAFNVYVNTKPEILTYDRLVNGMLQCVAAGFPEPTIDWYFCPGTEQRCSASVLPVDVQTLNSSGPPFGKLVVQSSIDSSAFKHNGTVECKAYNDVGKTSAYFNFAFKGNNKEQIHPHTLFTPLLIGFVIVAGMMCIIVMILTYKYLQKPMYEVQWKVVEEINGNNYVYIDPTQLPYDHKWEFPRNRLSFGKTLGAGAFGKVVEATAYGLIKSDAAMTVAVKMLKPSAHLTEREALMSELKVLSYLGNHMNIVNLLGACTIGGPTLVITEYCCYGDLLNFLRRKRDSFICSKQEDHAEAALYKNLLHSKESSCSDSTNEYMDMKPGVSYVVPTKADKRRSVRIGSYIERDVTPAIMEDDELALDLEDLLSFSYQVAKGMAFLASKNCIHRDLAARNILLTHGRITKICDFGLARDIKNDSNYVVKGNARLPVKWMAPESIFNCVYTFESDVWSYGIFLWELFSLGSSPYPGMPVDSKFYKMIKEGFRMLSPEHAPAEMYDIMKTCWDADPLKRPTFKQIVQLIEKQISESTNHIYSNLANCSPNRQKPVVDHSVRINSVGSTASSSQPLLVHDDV", "test": "Kinase inhibitory assay (TK-ELISA / off-chip MSA)", "type": "biochemical"}, "[1]": {"tested_on": "Ba/F3 cells expressing FLT3-ITD-F691 L", "test": "CellTiter-Glo cell viability", "type": "cell-based", "conditions": "Mus musculus, BaF3, 48 h; 2 days of treatment; read-out: Cell growth inhibition IC50", "method": "(§1) A detailed protocol is provided in the online resource.\n(§2) To examine the effect of ASP2215 on cell viability, MV4-11, MOLM-13, and Ba/F3 cells expressing either FLT3-ITD, FLT3-D835Y, FLT3-ITD-D835Y, FLT3-ITD-F691L or FLT3-ITD-F691I were seeded into 96-well white plates (Nunc F96 MicroWell™ Plates, white; Thermo Fisher Scientific Inc., Waltham, MA) at 1000 cells/well in Iscove’s Modified Dulbecco’s Medium, 500 cells/well in RPMI 1640 or 1000 cells/well in RPMI 1640, respectively. All cell lines were cultured overnight in a humidified incubator at 37°C with 5% CO2 in media supplemented with 10% heat-inactivated FBS.\n(§3) After treatment, the CellTiter-Glo® Luminescent Cell Viability Assay (Promega) was used according to the manufacturer’s instructions and luminescence was measured using an ARVO-HTS plate reader (Perkin Elmer Inc., Waltham, MA). The assay was performed in either triplicate or quadruplicate. […] The geometric mean was calculated from three individual experiments.\n(§4) The mutants of FLT3 (NM_004119), FLT3-D835Y (gat to tat), FLT3-ITD (insertion of […] at 1799 position of CDS), FLT3-ITD-F691I (ttt to att), FLT3-ITD-F691L (ttt to ctt), FLT3-ITD-D835Y were encoded into pMX-puro vector (Cell Biolabs, Inc., San Diego, CA), and transfected with FuGENE-HD (Promega) into Platinum-E cells. […]"}, "[2]": {"tested_on": "Ba/F3 cells expressing FLT3-ITD-F691I", "test": "CellTiter-Glo cell viability", "type": "cell-based", "conditions": "Mus musculus, BaF3, 48 h; 2 days of treatment; read-out: Cell growth inhibition IC50", "method": "as §1, §2, §3, §4"}, "[3]": {"test": "Pharmacokinetics in MV4–11 xenografted nude mice (plasma and tumor)", "type": "in vivo", "conditions": "for AUC(0-t) / Cmax / Tmax: nude, mouse; for AUC(0-t): read-out: AUCt, plasma concentration; for Tmax: read-out: Time of maximal plasma concentration", "method": "Tumor samples were also collected from each mouse and tumor weight was measured."}, "phospho-STAT5": {"tested_on": "phospho-STAT5", "test": "Immunoblot for phosphorylated STAT5 / STAT5 in MV4-11 xenograft tumors", "type": "in vivo, mice", "conditions": "for Phospho-STAT5, % of baseline levels: 3 mg/kg", "from_the_text": "Detailed protocols can be found in the online resource.\nAfter 1 month, mice were divided into groups, with each group having approximately the same mean tumor volume.\nMV4-11 xenograft tumor protein samples were electrophoresed on 7.5% gels, transferred to PVDF membranes, and probed for phosphorylated-STAT and total STAT5 as described earlier with one alteration. Following detection of phosphorylated STAT5, the membrane was stripped using Restore™ Western Blot Stripping Buffer (Thermo Fisher Scientific) and then re-probed for total STAT5. Phosphorylation levels were normalized to total STAT5 levels in each group (3 mice/group) relative to the mean value of the control group (4 mice/group). Data are reported as mean ± SEM."}, "MV4–11 tumors": {"tested_on": "MV4–11 tumors", "test": "MV4–11 subcutaneous xenograft antitumor activity", "type": "in vivo, mice", "conditions": "28 days; for Mice with complete tumor regression: n = 6", "method": "(§5) Once tumor growth had been confirmed, mice xenografted with MV4–11 cells were monitored for 28 days; mice xenografted with Ba/F3 cells expressing FLT3 mutations were monitored for 7 days. Tumor diameter was measured using a caliper, and tumor volume was determined by calculating the volume of an ellipsoid using the formula: length × width^2 × 0.5. Body weight was measured using a standard balance. Data are expressed as mean ± SEM from n = 6 mice/group (MV4–11) and n = 5 mice/group (Ba/F3).\n(§6) After tumor establishment, mice were divided into groups such that the mean tumor volume was approximately equal in each group."}, "[4]": {"test": "Body weight in MV4–11 xenograft study", "type": "in vivo, mice", "conditions": "1–10 mg/kg/day oral, 28 days; any tested dose", "method": "as §5, §6"}, "[5]": {"tested_on": "Ba/F3 cells expressing FLT3-ITD", "test": "Ba/F3 FLT3-ITD subcutaneous xenograft", "type": "in vivo, mice", "conditions": "up to 7 days", "method": "as §5, §6"}, "[6]": {"tested_on": "Ba/F3 cells expressing FLT3-D835Y", "test": "Ba/F3 FLT3-D835Y subcutaneous xenograft", "type": "in vivo, mice", "conditions": "up to 7 days", "method": "as §5, §6"}, "[7]": {"tested_on": "Ba/F3 cells expressing FLT3-ITD-D835Y", "test": "Ba/F3 FLT3-ITD-D835Y subcutaneous xenograft", "type": "in vivo, mice", "conditions": "up to 7 days", "method": "as §5, §6"}}, "note": "Like-named read-outs stand apart in the source and are kept apart here.", "data": [{"smiles": "CCc1nc(C(N)=O)c(Nc2ccc(N3CCC(N4CCN(C)CC4)CC3)c(OC)c2)nc1NC1CCOCC1", "note": "[gilteritinib]", "values": [{"measurement": "inhibition at 0.001 µM", "setting": "FLT3", "result": "> 50", "unit": "%"}, {"measurement": "IC50", "setting": "LTK", "result": 0.35, "unit": "nM"}, {"measurement": "inhibition at 0.001 µM", "setting": "LTK; 1 nM, single experiment", "result": "> 50", "unit": "%"}, {"measurement": "inhibition at 0.001 µM", "setting": "AXL", "result": "> 50", "unit": "%"}, {"measurement": "IC50", "setting": "c-KIT", "result": 230, "unit": "nM"}, {"measurement": "IC50", "setting": "[1]", "result": 22, "unit": "nM"}, {"measurement": "IC50", "setting": "[2]", "result": 49, "unit": "nM"}, {"measurement": "AUC(0-t)", "setting": "[3]; plasma, single oral 1 mg/kg", "result": 25.2, "unit": "ng·h/mL"}, {"measurement": "Cmax", "setting": "[3]; plasma, single oral 1 mg/kg, read-out: Cmax, plasma concentration", "result": 6.56, "unit": "ng/mL"}, {"measurement": "Tmax", "setting": "[3]; plasma, single oral 1 mg/kg", "result": 2, "unit": "h"}, {"measurement": "AUC(0-t)", "setting": "[3]; plasma, single oral 6 mg/kg", "result": 269, "unit": "ng·h/mL"}, {"measurement": "Cmax", "setting": "[3]; plasma, single oral 6 mg/kg, read-out: Cmax, plasma concentration", "result": 45.9, "unit": "ng/mL"}, {"measurement": "Tmax", "setting": "[3]; plasma, single oral 6 mg/kg", "result": 2, "unit": "h"}, {"measurement": "AUC(0-t)", "setting": "[3]; plasma, single oral 10 mg/kg", "result": 493, "unit": "ng·h/mL"}, {"measurement": "Cmax", "setting": "[3]; plasma, single oral 10 mg/kg, read-out: Cmax, plasma concentration", "result": 83, "unit": "ng/mL"}, {"measurement": "Tmax", "setting": "[3]; plasma, single oral 10 mg/kg", "result": 2, "unit": "h"}, {"measurement": "Cmax", "setting": "[3]; tumor, single oral 1 mg/kg, read-out: Cmax, intratumor concentration", "result": 90.6, "unit": "ng/g"}, {"measurement": "Cmax", "setting": "[3]; tumor, single oral 6 mg/kg, read-out: Cmax, intratumor concentration", "result": 772, "unit": "ng/g"}, {"measurement": "Cmax", "setting": "[3]; tumor, single oral 10 mg/kg, read-out: Cmax, intratumor concentration", "result": 1120, "unit": "ng/g"}, {"measurement": "Concentration in tumors compared with plasma", "setting": "[3]; single oral 1, 6, 10 mg/kg, each time point", "result": "higher than that in plasma at each time point"}, {"measurement": "AUCt, intratumor concentration", "setting": "[3]; tumor, single oral 1 mg/kg", "result": 1186, "unit": "ng·h/g"}, {"measurement": "Time of maximal intratumor concentration", "setting": "[3]; tumor, single oral 1 mg/kg", "result": 4, "unit": "h"}, {"measurement": "AUCt, intratumor concentration", "setting": "[3]; tumor, single oral 6 mg/kg", "result": 12880, "unit": "ng·h/g"}, {"measurement": "Time of maximal intratumor concentration", "setting": "[3]; tumor, single oral 6 mg/kg", "result": 8, "unit": "h"}, {"measurement": "AUCt, intratumor concentration", "setting": "[3]; tumor, single oral 10 mg/kg", "result": 17330, "unit": "ng·h/g"}, {"measurement": "Time of maximal intratumor concentration", "setting": "[3]; tumor, single oral 10 mg/kg", "result": 8, "unit": "h"}, {"measurement": "Phospho-STAT5, % of baseline levels", "setting": "phospho-STAT5; 4 h and 8 h", "result": "< 20", "unit": "%"}, {"measurement": "Phospho-STAT5, % of baseline levels", "setting": "phospho-STAT5; 24 h", "result": "approximately 50%"}, {"measurement": "Phosphorylation level of STAT5 in tumors", "setting": "phospho-STAT5; 4 h and 8 h after single dose of 6 mg/kg or 10 mg/kg", "result": "almost completely abolished"}, {"measurement": "STAT5 phosphorylation level, % of baseline", "setting": "phospho-STAT5; 24 h post drug, 6 mg/kg or 10 mg/kg", "result": "~20", "unit": "%"}, {"measurement": "Growth inhibition of MV4–11 tumors", "setting": "MV4–11 tumors; 1 mg/kg/day oral once daily", "result": 63, "unit": "%"}, {"measurement": "Growth inhibition of MV4–11 tumors", "setting": "MV4–11 tumors; 3 mg/kg/day oral once daily", "result": 80, "unit": "%"}, {"measurement": "Tumor regression", "setting": "MV4–11 tumors; 6 mg/kg/day oral once daily", "result": 93, "unit": "%"}, {"measurement": "Mice with complete tumor regression", "setting": "MV4–11 tumors; 6 mg/kg/day", "result": "Four of the six mice"}, {"measurement": "Tumor regression", "setting": "MV4–11 tumors; 10 mg/kg/day oral once daily", "result": 100, "unit": "%"}, {"measurement": "Mice with complete tumor regression", "setting": "MV4–11 tumors; 10 mg/kg/day", "result": "all six mice"}, {"measurement": "Body weight", "setting": "[4]", "result": "not affected"}, {"measurement": "Antitumor effect (tumor volume)", "setting": "[5]; 10 mg/kg once-daily oral", "result": "showed antitumor efficacy"}, {"measurement": "Antitumor effect (tumor volume)", "setting": "[5]; 30 mg/kg once-daily oral", "result": "induced tumor regression"}, {"measurement": "Antitumor effect (tumor volume)", "setting": "[6]; 10 mg/kg once-daily oral", "result": "showed antitumor efficacy"}, {"measurement": "Antitumor effect (tumor volume)", "setting": "[6]; 30 mg/kg once-daily oral", "result": "induced tumor regression"}, {"measurement": "Antitumor effect (tumor volume)", "setting": "[7]; 10 mg/kg once-daily oral", "result": "showed antitumor efficacy"}, {"measurement": "Antitumor effect (tumor volume)", "setting": "[7]; 30 mg/kg once-daily oral", "result": "induced tumor regression"}]}]}
